Measurements taken from ChEMBL document CHEMBL1201862, “PubChem BioAssay data set” (2004).
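Dose response: 5 concentrations. Exposure: 48 h. Format: 96-well plates. Endpoint: linear interpolation; highest concentration if not reached. Here, GI50 denotes the concentration required for 50% inhibition of growth.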 Active and inactive are the calls of the source. Cut-off read from the data, not from the text of the source: active = GI50 up to about 1.1 µM and inactive = higher.

Experiments:
Assay in all cases: NCI anticancer screen, dose series, 48 h
[1] = test system: RXF 393
[2] = test system: A498
[3] = test system: SK-MEL-2
[4] = test system: 786-0
[5] = test system: U-251
[6] = test system: SK-OV-3
[7] = test system: BT-549
[8] = test system: SW-620
[9] = test system: PC-3
[10] = test system: M14
[11] = test system: MDA-MB-435
[12] = test system: MCF7
[13] = test system: Hs-578T
[14] = test system: NCI/ADR-RES
[15] = test system: CCRF-CEM
[16] = test system: Malme-3M
[17] = test system: DU-145
[18] = test system: HOP-92
[19] = test system: SK-MEL-28
[20] = test system: T47D

SMILES | GI50 [1] | GI50 [2] | GI50 [3] | GI50 [4] | GI50 [5] | GI50 [6] | GI50 [7] | GI50 [8] | GI50 [9] | GI50 [10] | GI50 [11] | GI50 [12] | GI50 [13] | GI50 [14] | GI50 [15] | GI50 [16] | GI50 [17] | GI50 [18] | GI50 [19] | GI50 [20]
C[C@]12C[C@H](c3ccccc3)Nc3ccccc3N1C(c1ccccc1)=NO2 | > 100 µM (inactive) | > 100 µM (inactive) | > 100 µM (inactive) | 60.1 µM (inactive) | 96.4 µM (inactive) | > 100 µM (inactive) | 30.5 µM (inactive) | > 100 µM (inactive) | 40.4 µM (inactive) | 49.2 µM (inactive) | 35.5 µM (inactive) | 52.6 µM (inactive) | > 100 µM (inactive) | 41.1 µM (inactive) | 67.6 µM (inactive) | 44.3 µM (inactive) | > 100 µM (inactive) | 30.1 µM (inactive) |  | 
COC1=CC(c2ccc(Br)[nH]2)=N/C1=C/NCC(C)C |  | 2.23 µM (inactive) | 1.5 µM (inactive) | 1.55 µM (inactive) | 1.51 µM (inactive) | 2.53 µM (inactive) |  |  | 1.47 µM (inactive) | 1.98 µM (inactive) | 1.93 µM (inactive) | 1.09 µM (active) | 2.29 µM (inactive) |  | 0.581 µM (active) | 1.75 µM (inactive) | 0.475 µM (active) | 1.32 µM (inactive) | 2.75 µM (inactive) | 
CC(C)(C)N(Cc1ccc2c(c1)OCO2)C(=O)/C=C\Sc1ccccc1 |  | 71 µM (inactive) | 25.2 µM (inactive) | > 100 µM (inactive) | 63.7 µM (inactive) | > 100 µM (inactive) | 42.6 µM (inactive) | 99.8 µM (inactive) | 38.1 µM (inactive) | 77.1 µM (inactive) | 25.8 µM (inactive) | 51.8 µM (inactive) |  | 89.5 µM (inactive) | 43.5 µM (inactive) |  | > 100 µM (inactive) | 14.2 µM (inactive) | > 100 µM (inactive) | 21.4 µM (inactive)
CCOC(=O)C1(C(=O)OCC)C[C@]23OCCC(=O)[C@H]2[C@H]2C(=O)OC(C)(C)O[C@]23C1 |  | > 100 µM (inactive) | > 100 µM (inactive) | > 100 µM (inactive) | > 100 µM (inactive) |  |  | > 100 µM (inactive) | > 100 µM (inactive) | > 100 µM (inactive) | > 100 µM (inactive) | > 100 µM (inactive) | > 100 µM (inactive) | > 100 µM (inactive) | > 100 µM (inactive) | > 100 µM (inactive) | > 100 µM (inactive) | > 100 µM (inactive) | > 100 µM (inactive) | > 100 µM (inactive)
Cc1nc2c(=S)[nH]ncc2[nH]1 |  | > 100 µM (inactive) | > 100 µM (inactive) | > 100 µM (inactive) | > 100 µM (inactive) | > 100 µM (inactive) | > 100 µM (inactive) | > 100 µM (inactive) | > 100 µM (inactive) | > 100 µM (inactive) | > 100 µM (inactive) | > 100 µM (inactive) |  | > 100 µM (inactive) | > 100 µM (inactive) | 94.8 µM (inactive) |  | > 100 µM (inactive) | > 100 µM (inactive) | > 100 µM (inactive)
CC(C)(C)OC(=O)C1/C(=C/CBr)CN1C(=O)OC(C)(C)C (stereo not given) |  | 16.4 µM (inactive) | > 10 µM (inactive) | 11.2 µM (inactive) |  | 21.1 µM (inactive) | 16.7 µM (inactive) | 5 µM (inactive) | 14.3 µM (inactive) | 16.6 µM (inactive) | 12.9 µM (inactive) | 3.76 µM (inactive) | 22 µM (inactive) | 22.8 µM (inactive) | 2.64 µM (inactive) | 18 µM (inactive) |  | 13.9 µM (inactive) | 17.7 µM (inactive) | 
N#Cc1nc(C#N)c(NC(=O)c2ccccc2C(=O)O)[nH]1 |  | > 100 µM (inactive) | > 100 µM (inactive) | > 100 µM (inactive) | > 100 µM (inactive) | > 100 µM (inactive) |  | > 100 µM (inactive) | > 100 µM (inactive) | > 100 µM (inactive) | > 100 µM (inactive) | > 100 µM (inactive) | > 100 µM (inactive) | > 100 µM (inactive) | > 100 µM (inactive) | > 100 µM (inactive) | > 100 µM (inactive) | > 100 µM (inactive) | > 100 µM (inactive) | > 100 µM (inactive)
CC(C)(C)NC(=O)/C(=C\Sc1ccccc1)c1ccc2c(c1)OCO2 |  | 20.4 µM (inactive) | 15.5 µM (inactive) | 31.9 µM (inactive) | 30 µM (inactive) | 52.5 µM (inactive) | 75.9 µM (inactive) | 37.8 µM (inactive) | 22.5 µM (inactive) | 21.8 µM (inactive) | 22.2 µM (inactive) | 26.1 µM (inactive) |  | 24.2 µM (inactive) | 28.5 µM (inactive) |  | 37.2 µM (inactive) | 15.5 µM (inactive) | 49 µM (inactive) | 26 µM (inactive)
